According to EP0378285A1, “Substituted alkenes, processes for their preparation and their use as pesticides” (priority 1989, dated 1990):

Columns and labels:
Format in all cases: in vivo
[1] = system: cotton bollworm (Heliothis viriscens); test: Use Example H: ovicidal activity against eggs of the cotton bollworm; details: aqueous preparation 0.1 %; one day old eggs dipped; four days; % inhibition of hatching of the eggs
Description: Ovicidal activity against eggs of the cotton bollworm (Heliothis viriscens)
The compounds of the invention were made up as aqueous preparations at a concentration of 0.1 %. One day old eggs that had been laid on filter paper by fertilised female moths were dipped in the preparations until they were completely wet and then placed in closed petri dishes under extended daylight conditions for four days. The % inhibition of hatching of the eggs in comparison with untreated eggs indicates the level of activity.

[2] = system: corn rootworm (Diabrotica undecimpunctata); test: Use Example D: activity against eggs/larvae of the corn rootworm; details: Diabrotica undecimpunctata, 168 h; aqueous emulsion 0.1%, 0.2 ml pipetted into soil; 7 days at 25 C; death of eggs or newly hatched larvae
Description: Activity against eggs/larvae of the corn rootworm (Diabrotica undecimpunctata)
The compounds of the invention were made up as aqueous emulsions at a concentration of 0.1%. Into the soil in polystyrene petri dishes, containing maize seedlings (1 seedling/dish) and ca. 50 eggs of the corn rootworm (Diabrotica undecimpunctata) were pipetted 0.2 ml of these preparations. The closed dishes were left at 25 C under extended daylight conditions for 7 days. The criterion for judging the activity was the death of eggs or newly hatched larvae at the end of the test.

[3] = system: two spotted mite (Tetranychus urticae Koch); test: Use Example C: activity in the prophylactic treatment of feed against the two spotted mite; details: foliar, 0.1 % aqueous preparation, field bean leaf discs, adults and eggs counted after 3 days at 25 C, larvae after a further 7 days, Abbott's method
Description: Activity in the prophylactic treatment of feed against the two spotted mite (Tetranychus urticae Koch)
From the primary leaf of field beans (Phaseolus vulgaris nanus Aschers.) 14 mm diameter discs were cut. Some of these were treated with a 0.1 % aqueous preparations of compounds of the invention and these along side untreated discs were placed on filter papers with the underside of the leaves turned upwards. After drying the test pieces, they were each infested with six adult female Tetranychus urticae and maintained for 3 days at 25 C and 16 hours light per day. The experiment was replicated 4 times. Dead and alive adults were then counted and removed. Similarly the number of eggs laid were counted. After a further 7 days, the number of living larvae were counted, the activity calculated using Abbott's method in comparison with the untreated controls.

Aphis fabae = test: Activity in prophylactic treatment of leaf discs against Aphis fabae; details: Aphis fabae, foliar, 48 h; 0.1% aqueous preparation; field bean leaf discs infested with wingless stages; 2 days at 25 C; percentage mortality, Abbott's method
Description: From the primary leaf of field beans (Phaseolus vulgaris nanus Aschers.), 24 mm diameter discs were cut. Some of these were treated with a 0.1% aqueous preparations of compounds of the invention and these along side untreated discs were placed on filter papers with the underside of the leaves turned upwards. After drying the test pieces, they were each infested with wingless stages of Aphis fabae (approx 100 per leaf piece). The experiment was replicated 3 times. The leaves were kept on wet filter papers for 2 days at 25 C and 16 hours light per day. The percentage mortality was then estimated and the activity calculated using Abbott's method in comparison with the untreated controls.

[4] = system: brown rice-hoppers (Niliparvata lugens Stal); test: Use Example B: activity in prophylactic treatment of leaves against brown rice-hoppers; details: 48 h, read-out: activity
Description: Activity in prophylactic treatment of leaves against brown rice-hoppers (Niliparvata lugens Stal)
Rice seedlings (Oryzae sativa L.) in the two leaf stage (about 10 per polystyrene pot of size 6.5 x 6.5 cm) were either untreated or […] until dripping wet, with an aqueous preparation containing 0.1 % of active material. After drying the sprayed leaves, a transparent cylinder was placed over each pot and through an opening, about 30 brown rice-hoppers (Niliparvata lugens) in the 4-5 stage, anaesthetised with carbon dioxide, were introduced into each pot. After closing the opening with a fine mesh screen, the pots were kept for 2 days at 28° C and 16 hours/day of light in the glasshouse, the amount of dead hoppers was determined. The percentage mortality was then estimated and the activity calculated using Abbott's method in comparison with the untreated controls.

[5] = system: cotton bollworm (Heliothis viriscens); test: whole plant or invertebrate; details: 48 h, read-out: activity
Description: Activity against larvae (L1) of the cotton bollworm (Heliothis viriscens)
Compounds of the invention were made up as aqueous preparations at a concentration of 0.1 %. Into these, feed material was dipped for 2 seconds. After drying the feed material was put into into polystyrene petri dishes. After an hour, 10 L1 of the cotton bollworm (Heliothis viriscens) were counted into the dishes. The closed dishes were left for up to 7 days at 25 °C under extended daylight conditions. The % mortality of the larvae after two days indicated the level of activity.

In the case of `C=C(C)C(C)(C)COCc1ccc(F)c(Nc2ccccc2)c1` [Example 20, 4-(3-anilino-4-fluorobenzyloxy)-2,3,3-trimethyl-1-butene], the activity [1] is reported as 80 - 100%, the mortality at 0.1 % [2] is reported as 80 to 100% and the mortality at 0.1 % [3] is reported as 80 to 100%. The mortality at 0.1 % (Aphis fabae) was no less than 80%, the mortality at 0.1 % [4] was no less than 80% and the mortality at 0.1 % [5] was 80 to 100%.
